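Grown in 96-well plates, cells were treated for 48 hours with each compound at five concentrations. Insufficient inhibition: endpoint recorded as highest concentration tested. TGI: total growth inhibition.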
Experiments:
Experiment in all cases: growth of human tumour cells (NCI), 48 h
786-0 renal = system: 786-0 renal
A498 renal = system: A498 renal
A549 NSCLC = system: A549 NSCLC
ACHN renal = system: ACHN renal
BT-549 breast = system: BT-549 breast
CAKI-1 renal = system: CAKI-1 renal
CCRF-CEM leukemia = system: CCRF-CEM leukemia
COLO 205 colon = system: COLO 205 colon
DU-145 prostate = system: DU-145 prostate
EKVX NSCLC = system: EKVX NSCLC
HCC-2998 colon = system: HCC-2998 colon
HCT-116 colon = system: HCT-116 colon
HCT-15 colon = system: HCT-15 colon
HL-60(TB) leukemia = system: HL-60(TB) leukemia
HOP-62 NSCLC = system: HOP-62 NSCLC
HOP-92 NSCLC = system: HOP-92 NSCLC
HS 578T breast = system: HS 578T breast
HT29 colon = system: HT29 colon
IGROV1 ovarian = system: IGROV1 ovarian
K-562 leukemia = system: K-562 leukemia
KM12 colon = system: KM12 colon
LOX IMVI melanoma = system: LOX IMVI melanoma
M14 melanoma = system: M14 melanoma
MALME-3M melanoma = system: MALME-3M melanoma
MDA-MB-231 breast = system: MDA-MB-231 breast
MDA-MB-435 = system: MDA-MB-435
MDA-N = system: MDA-N
MOLT-4 leukemia = system: MOLT-4 leukemia
NCI-H226 lung = system: NCI-H226 lung
NCI-H23 lung = system: NCI-H23 lung
NCI-H460 lung = system: NCI-H460 lung
NCI-H522 lung = system: NCI-H522 lung
NCI/ADR-RES ovarian = system: NCI/ADR-RES ovarian
OVCAR-3 ovarian = system: OVCAR-3 ovarian
OVCAR-4 ovarian = system: OVCAR-4 ovarian
OVCAR-5 ovarian = system: OVCAR-5 ovarian
OVCAR-8 ovarian = system: OVCAR-8 ovarian
PC-3 prostate = system: PC-3 prostate
RPMI-8226 leukemia = system: RPMI-8226 leukemia
RXF 393 renal = system: RXF 393 renal
SF-268 CNS = system: SF-268 CNS
SF-295 CNS = system: SF-295 CNS
SF-539 CNS = system: SF-539 CNS
SK-MEL-2 melanoma = system: SK-MEL-2 melanoma
SK-MEL-28 melanoma = system: SK-MEL-28 melanoma
SK-MEL-5 melanoma = system: SK-MEL-5 melanoma
SK-OV-3 ovarian = system: SK-OV-3 ovarian
SN12C renal = system: SN12C renal
SNB-19 CNS = system: SNB-19 CNS
SNB-75 CNS = system: SNB-75 CNS
SR leukemia = system: SR leukemia
SW-620 colon = system: SW-620 colon
T-47D breast = system: T-47D breast
TK-10 renal = system: TK-10 renal
U251 CNS = system: U251 CNS
UACC-257 melanoma = system: UACC-257 melanoma
UACC-62 melanoma = system: UACC-62 melanoma
UO-31 renal = system: UO-31 renal
MCF7 breast = system: MCF7 breast

## CC1=C(C)C(=O)C(C2=C(C3=CC(=O)C(C)=C(C)C3=O)C(=O)c3ccccc3C2=O)=CC1=O
786-0 renal
  TGI: 5.74 µM
A498 renal
  TGI: 18.4 µM
A549 NSCLC
  TGI: 17.7 µM
ACHN renal
  TGI: 6.71 µM
BT-549 breast
  TGI: 7.16 µM
CAKI-1 renal
  TGI: 5.66 µM
CCRF-CEM leukemia
  TGI: 7.22 µM
COLO 205 colon
  TGI: 3.93 µM
DU-145 prostate
  TGI: 8.06 µM
EKVX NSCLC
  TGI: 5.81 µM
HCC-2998 colon
  TGI: 16.3 µM
HCT-116 colon
  TGI: 5.31 µM
HCT-15 colon
  TGI: 5.53 µM
HL-60(TB) leukemia
  TGI: 1.11 µM
HOP-62 NSCLC
  TGI: 31.8 µM
HOP-92 NSCLC
  TGI: 6.72 µM
HS 578T breast
  TGI: 43.5 µM
HT29 colon
  TGI: 5.47 µM
IGROV1 ovarian
  TGI: 7.14 µM
K-562 leukemia
  TGI: 19.7 µM
KM12 colon
  TGI: 11.1 µM
LOX IMVI melanoma
  TGI: 5.94 µM
M14 melanoma
  TGI: 3.64 µM
MALME-3M melanoma
  TGI: 2.8 µM
MDA-MB-231 breast
  TGI: 6.23 µM
MDA-MB-435
  TGI: 3.05 µM
MDA-N
  TGI: 3.6 µM
MOLT-4 leukemia
  TGI: 5.3 µM
NCI-H226 lung
  TGI: 21 µM
NCI-H23 lung
  TGI: 10.2 µM
NCI-H460 lung
  TGI: 37.7 µM
NCI-H522 lung
  TGI: 5.49 µM
NCI/ADR-RES ovarian
  TGI: 36.7 µM
OVCAR-3 ovarian
  TGI: 15.8 µM
OVCAR-4 ovarian
  TGI: 4 µM
OVCAR-5 ovarian
  TGI: 32.2 µM
OVCAR-8 ovarian
  TGI: 8.07 µM
PC-3 prostate
  TGI: 7.83 µM
RPMI-8226 leukemia
  TGI: 18 µM
RXF 393 renal
  TGI: 3.38 µM
SF-268 CNS
  TGI: 17.5 µM
SF-295 CNS
  TGI: 27.9 µM
SF-539 CNS
  TGI: 10.5 µM
SK-MEL-2 melanoma
  TGI: 5.71 µM
SK-MEL-28 melanoma
  TGI: 5.03 µM
SK-MEL-5 melanoma
  TGI: 12.6 µM
SK-OV-3 ovarian
  TGI: 30.5 µM
SN12C renal
  TGI: 4.06 µM
SNB-19 CNS
  TGI: 25.8 µM
SNB-75 CNS
  TGI: 19.6 µM
SR leukemia
  TGI: 14.1 µM
SW-620 colon
  TGI: 4.99 µM
T-47D breast
  TGI: 12.4 µM
TK-10 renal
  TGI: 15.9 µM
U251 CNS
  TGI: 12.6 µM
UACC-257 melanoma
  TGI: 4.22 µM
UACC-62 melanoma
  TGI: 4.62 µM
UO-31 renal
  TGI: 4.95 µM

## CNc1ncnc2c1cnn2Cc1cn(CCCCO)nn1
786-0 renal
  TGI: > 100 µM
A498 renal
  TGI: > 100 µM
A549 NSCLC
  TGI: > 100 µM
ACHN renal
  TGI: > 100 µM
BT-549 breast
  TGI: > 100 µM
CAKI-1 renal
  TGI: > 100 µM
CCRF-CEM leukemia
  TGI: > 100 µM
COLO 205 colon
  TGI: > 100 µM
DU-145 prostate
  TGI: > 100 µM
EKVX NSCLC
  TGI: > 100 µM
HCC-2998 colon
  TGI: > 100 µM
HCT-116 colon
  TGI: > 100 µM
HCT-15 colon
  TGI: > 100 µM
HOP-62 NSCLC
  TGI: > 100 µM
HOP-92 NSCLC
  TGI: > 100 µM
HS 578T breast
  TGI: > 100 µM
HT29 colon
  TGI: > 100 µM
IGROV1 ovarian
  TGI: > 100 µM
K-562 leukemia
  TGI: > 100 µM
KM12 colon
  TGI: > 100 µM
LOX IMVI melanoma
  TGI: > 100 µM
M14 melanoma
  TGI: > 100 µM
MALME-3M melanoma
  TGI: > 100 µM
MCF7 breast
  TGI: > 100 µM
MDA-MB-231 breast
  TGI: > 100 µM
MDA-MB-435
  TGI: > 100 µM
MDA-N
  TGI: > 100 µM
MOLT-4 leukemia
  TGI: > 100 µM
NCI-H226 lung
  TGI: > 100 µM
NCI-H23 lung
  TGI: > 100 µM
NCI-H460 lung
  TGI: > 100 µM
NCI-H522 lung
  TGI: > 100 µM
NCI/ADR-RES ovarian
  TGI: > 100 µM
OVCAR-3 ovarian
  TGI: > 100 µM
OVCAR-4 ovarian
  TGI: > 100 µM
OVCAR-5 ovarian
  TGI: > 100 µM
OVCAR-8 ovarian
  TGI: > 100 µM
PC-3 prostate
  TGI: > 100 µM
RPMI-8226 leukemia
  TGI: > 100 µM
RXF 393 renal
  TGI: > 100 µM
SF-268 CNS
  TGI: > 100 µM
SF-295 CNS
  TGI: > 100 µM
SF-539 CNS
  TGI: > 100 µM
SK-MEL-2 melanoma
  TGI: > 100 µM
SK-MEL-28 melanoma
  TGI: > 100 µM
SK-MEL-5 melanoma
  TGI: > 100 µM
SK-OV-3 ovarian
  TGI: > 100 µM
SN12C renal
  TGI: > 100 µM
SNB-19 CNS
  TGI: > 100 µM
SR leukemia
  TGI: > 100 µM
SW-620 colon
  TGI: > 100 µM
T-47D breast
  TGI: > 100 µM
TK-10 renal
  TGI: > 100 µM
U251 CNS
  TGI: > 100 µM
UACC-257 melanoma
  TGI: > 100 µM
UACC-62 melanoma
  TGI: > 100 µM
UO-31 renal
  TGI: > 100 µM
